This is an account of results in article PMC6727418, “Cyanidin-3-rutinoside acts as a natural inhibitor of intestinal lipid digestion and absorption” (BMC Complementary and Alternative Medicine, 2019).

SMILES strings stand for the structures.

Assay [1] concerns the target T1, Porcine pancreatic lipase (Sus scrofa, UniProt P00591).
T1 construct: gene PNLIP
T1 sequence (P00591 1-450): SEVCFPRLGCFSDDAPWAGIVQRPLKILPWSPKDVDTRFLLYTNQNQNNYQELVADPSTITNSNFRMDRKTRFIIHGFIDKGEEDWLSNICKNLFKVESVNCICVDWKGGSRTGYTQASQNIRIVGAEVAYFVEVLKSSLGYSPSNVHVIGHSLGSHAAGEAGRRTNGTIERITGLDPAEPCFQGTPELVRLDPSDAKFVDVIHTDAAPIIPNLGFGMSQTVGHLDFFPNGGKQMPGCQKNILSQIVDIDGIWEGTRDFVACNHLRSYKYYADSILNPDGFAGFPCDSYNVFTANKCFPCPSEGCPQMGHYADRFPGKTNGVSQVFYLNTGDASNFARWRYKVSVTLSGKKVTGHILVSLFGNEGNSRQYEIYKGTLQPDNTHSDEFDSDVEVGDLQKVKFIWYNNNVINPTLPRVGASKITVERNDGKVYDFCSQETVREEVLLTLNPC
Description: fluorometric 4-MUO hydrolysis assay; Lineweaver-Burk kinetics (Ki […], Ki'[…]). It counts as biochemical.

For assay [2], the target named is T2, porcine pancreatic cholesterol esterase (Sus scrofa, UniProt A0A286ZKB1).
T2 construct: gene CEL
T2 sequence (A0A286ZKB1 96-682): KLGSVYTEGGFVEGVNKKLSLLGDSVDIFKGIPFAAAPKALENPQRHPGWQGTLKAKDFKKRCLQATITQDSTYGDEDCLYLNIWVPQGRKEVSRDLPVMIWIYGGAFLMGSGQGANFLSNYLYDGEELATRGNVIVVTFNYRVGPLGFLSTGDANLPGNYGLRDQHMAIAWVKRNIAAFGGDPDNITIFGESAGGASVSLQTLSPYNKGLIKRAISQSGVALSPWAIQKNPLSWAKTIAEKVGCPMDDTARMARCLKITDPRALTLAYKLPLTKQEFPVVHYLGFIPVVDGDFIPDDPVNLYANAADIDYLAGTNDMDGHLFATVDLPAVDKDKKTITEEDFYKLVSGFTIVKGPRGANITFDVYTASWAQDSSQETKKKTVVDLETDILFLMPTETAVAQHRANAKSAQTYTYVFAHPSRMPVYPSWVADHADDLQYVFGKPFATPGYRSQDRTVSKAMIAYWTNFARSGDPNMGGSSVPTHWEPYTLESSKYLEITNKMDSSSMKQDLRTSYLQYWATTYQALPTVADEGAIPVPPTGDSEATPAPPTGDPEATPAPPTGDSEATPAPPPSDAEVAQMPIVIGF
Description: colorimetric p-NPB hydrolysis assay, percent inhibition at […]. The assay is classed as biochemical. Particulars: read-out: % inhibition at 1 mM.

`C[C@@H]1O[C@@H](OC[C@H]2O[C@@H](Oc3cc4c(O)cc(O)cc4[o+]c3-c3ccc(O)c(O)c3)[C@H](O)[C@@H](O)[C@@H]2O)[C@H](O)[C@H](O)[C@H]1O` [C3R, Cyanidin-3-rutinoside] had an IC50 in assay [1] of 59.4 ± 1.41 µM.

As to `O=C(O)c1cc(O)c(O)c(O)c1` [gallic acid], in assay [2], the inhibition at 1000 µM is roughly 39%.

For orientation: IC50 means the point on the concentration scale where inhibition reaches its midpoint. A low value points to greater potency in that assay. What is called inhibition is the share of the control response that was lost under treatment.
